Assay results as given in ChEMBL document CHEMBL1130277, “Three-dimensional quantitative structure-activity relationships from molecular similarity matrices and genetic neural networks. 2. Applications” (J Med Chem, 1997).

Key:
[1] = target: GABA-A receptor; anion channel
Description: Inhibition on Benzodiazepine receptor

[2] = target: T1, Aryl hydrocarbon receptor (Homo sapiens, UniProt P35869)
T1 sequence (P35869 whole entry): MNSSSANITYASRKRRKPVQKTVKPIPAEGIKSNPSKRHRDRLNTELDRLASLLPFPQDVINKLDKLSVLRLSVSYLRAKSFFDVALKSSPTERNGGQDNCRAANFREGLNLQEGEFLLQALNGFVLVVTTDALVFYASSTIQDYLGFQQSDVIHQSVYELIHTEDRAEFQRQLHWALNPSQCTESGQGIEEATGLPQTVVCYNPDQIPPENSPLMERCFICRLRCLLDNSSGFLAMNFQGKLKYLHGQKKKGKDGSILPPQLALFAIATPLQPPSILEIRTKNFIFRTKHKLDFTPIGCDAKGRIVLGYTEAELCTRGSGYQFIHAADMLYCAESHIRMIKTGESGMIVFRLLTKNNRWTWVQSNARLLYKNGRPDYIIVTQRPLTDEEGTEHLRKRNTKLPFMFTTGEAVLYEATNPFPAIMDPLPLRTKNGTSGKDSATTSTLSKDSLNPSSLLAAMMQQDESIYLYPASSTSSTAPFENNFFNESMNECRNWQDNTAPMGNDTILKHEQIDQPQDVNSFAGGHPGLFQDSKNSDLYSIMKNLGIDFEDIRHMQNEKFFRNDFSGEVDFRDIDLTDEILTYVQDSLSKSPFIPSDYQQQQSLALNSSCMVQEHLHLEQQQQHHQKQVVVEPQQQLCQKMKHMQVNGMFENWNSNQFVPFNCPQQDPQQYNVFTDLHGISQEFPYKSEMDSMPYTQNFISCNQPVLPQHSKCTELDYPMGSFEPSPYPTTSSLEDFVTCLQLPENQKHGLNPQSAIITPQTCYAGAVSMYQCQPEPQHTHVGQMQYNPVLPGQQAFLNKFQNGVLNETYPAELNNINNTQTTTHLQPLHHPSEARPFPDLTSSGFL
Description: Affinity on cytosolic Aromatic hydrocarbon receptor (Ah)

Acetylcholinesterase = Acetylcholinesterase (Homo sapiens, UniProt P22303)
Sequence of Acetylcholinesterase (P22303 whole entry): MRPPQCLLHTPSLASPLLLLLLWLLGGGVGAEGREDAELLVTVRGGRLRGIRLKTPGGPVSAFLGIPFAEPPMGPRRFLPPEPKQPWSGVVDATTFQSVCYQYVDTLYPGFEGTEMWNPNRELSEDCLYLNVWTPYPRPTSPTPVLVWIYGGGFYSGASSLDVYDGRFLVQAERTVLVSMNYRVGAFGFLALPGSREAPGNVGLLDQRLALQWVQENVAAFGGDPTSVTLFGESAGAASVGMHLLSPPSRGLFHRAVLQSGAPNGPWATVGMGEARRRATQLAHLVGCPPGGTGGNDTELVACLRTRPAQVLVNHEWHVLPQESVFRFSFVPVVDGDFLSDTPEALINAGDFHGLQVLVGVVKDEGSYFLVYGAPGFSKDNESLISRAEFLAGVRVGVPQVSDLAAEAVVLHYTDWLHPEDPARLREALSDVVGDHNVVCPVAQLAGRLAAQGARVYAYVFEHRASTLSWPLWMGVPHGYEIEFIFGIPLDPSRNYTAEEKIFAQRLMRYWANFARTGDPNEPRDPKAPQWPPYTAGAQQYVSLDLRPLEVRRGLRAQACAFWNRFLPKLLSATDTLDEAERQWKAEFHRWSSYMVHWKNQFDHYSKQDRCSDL
Description: Inhibition acetylcholinesterase (AChE) enzyme.

| Structure (SMILES) | EC50 [2] [µM] | IC50 (Acetylcholinesterase) [µM] | further results |
| --- | --- | --- | --- |
| CC(C)COc1cc2c(cn1)[nH]c1ccccc12 | – | – | pIC50 [1]: 7.03 |
| CC(C)(C)C(=O)c1cc2c3ccccc3nc-2c[nH]1 | – | – | pIC50 [1]: 6.45 |
| Clc1cc(Cl)c2c(c1)oc1cc(Cl)c(Cl)c(Cl)c12 | 0.4 | – | – |
| Clc1cc2oc3c(Cl)cccc3c2c(Cl)c1Cl | 0.35 | – | – |
| CCOCC[N+](C)(C)C | – | 1160 | – |
| Brc1cc(Br)c2c(c1)Oc1cc(Br)cc(Br)c1O2 | 0.0929 | – | – |
| C=CCC[N+](C)(C)C | – | 847 | – |
| C=CC[N+](C)(C)C | – | 2920 | – |
| Brc1ccc2c(c1)Oc1ccc(Br)cc1O2 | 0.0155 | – | – |
| Clc1cc2c(cc1Cl)Oc1c(Cl)c(Cl)c(Cl)c(Cl)c1O2 | 0.28 | – | – |
| Clc1cc(-c2ccc(Cl)c(Cl)c2Cl)cc(Cl)c1Cl | 5 | – | – |
| C[N+](C)(C)CCS | – | 440 | – |
| COc1cccc([N+](C)(C)C)c1 | – | 597 | – |
| Clc1cc(Cl)c(-c2cc(Cl)c(Cl)c(Cl)c2)cc1Cl | 16 | – | – |
| Clc1cc2c(cc1Cl)Oc1c(Cl)cccc1O2 | 0.22 | – | – |
| Clc1cc(Cl)c2c(c1)Oc1cc(Cl)c(Cl)cc1O2 | 0.794 | – | – |
| CCCCCC[N+](C)(C)C | – | 817 | – |
| CCC(=O)Oc1cccc([N+](C)(C)C)c1 | – | 5.97 | – |
| Clc1ccc2c(c1)Oc1cc(Cl)c(Cl)cc1O2 | 0.071 | – | – |
| Clc1cc2oc3c(Cl)cc(Cl)c(Cl)c3c2cc1Cl | 1.3 | – | – |
| Clc1cc2c(cc1Cl)Oc1cc(Br)c(Br)cc1O2 | 0.00148 | – | – |

| Structure (SMILES) | EC50 [2] [µM] | IC50 (Acetylcholinesterase) [µM] | further results |
| --- | --- | --- | --- |
| Brc1ccc2c(c1)Oc1cc(Br)c(Br)cc1O2 | 0.00117 | – | – |
| Clc1c(Cl)c(Cl)c2c(c1Cl)Oc1c(Cl)c(Cl)c(Cl)c(Cl)c1O2 | 10 | – | – |
| Clc1ccc(-c2cc(Cl)c(Cl)c(Cl)c2Cl)cc1Cl | 7.1 | – | – |
| CCSCC[N+](C)(C)C | – | 1510 | – |
| Clc1ccc2oc3c(Cl)cc(Cl)c(Cl)c3c2c1 | 10 | – | – |
| CCC(=O)Oc1ccc(C)c([N+](C)(C)C)c1 | – | 69 | – |
| CCC(=O)Oc1cccc([N+](C)(C)C)c1C | – | 753 | – |
| Clc1cc(Cl)c2c(c1Cl)Oc1ccccc1O2 | 13 | – | – |
| Clc1cc2oc3cc(Cl)c(Cl)cc3c2cc1Cl | 0.041 | – | – |
| CC(=O)Oc1cccc([N+](C)(C)C)c1C | – | 40.8 | – |
| Clc1ccc2c(c1)oc1cc(Cl)c(Cl)c(Cl)c12 | 0.219 | – | – |
| Clc1ccc2c(oc3c(Cl)cc(Cl)c(Cl)c32)c1Cl | 0.0678 | – | – |
| Clc1cc2c(oc3c(Cl)cccc32)c(Cl)c1Cl | 0.35 | – | – |
| COc1ccc(C)c([N+](C)(C)C)c1 | – | 345 | – |
| Clc1cc(Cl)c2oc3cc(Cl)c(Cl)cc3c2c1 | 0.22 | – | – |
| Clc1cc2c(oc3c(Cl)cc(Cl)c(Cl)c32)c(Cl)c1Cl | 8.3 | – | – |
| CC(=O)CCC[N+](C)(C)C | – | 84.7 | – |
| Clc1cc(Cl)c2oc3c(Cl)cc(Cl)c(Cl)c3c2c1 | 3.1 | – | – |
| Brc1cc(Br)c2c(c1)Oc1cc(Br)c(Br)cc1O2 | 0.002 | – | – |
| Clc1cc2c(cc1Cl)Oc1c(cc(Cl)c(Cl)c1Cl)O2 | 0.0794 | – | – |
| CC(=O)Nc1cccc([N+](C)(C)C)c1 | – | 1000 | – |

| Structure (SMILES) | EC50 [2] [µM] | IC50 (Acetylcholinesterase) [µM] | further results |
| --- | --- | --- | --- |
| Clc1ccc(-c2cc(Cl)c(Cl)cc2Cl)cc1Cl | 9.1 | – | – |
| Clc1cc2oc3cc(Cl)c(Cl)c(Cl)c3c2cc1Cl | 0.0741 | – | – |
| Clc1cc2c(cc1Br)Oc1cc(Br)c(Cl)cc1O2 | 0.000447 | – | – |
| Clc1cc(Cl)c2c(c1)oc1c(Cl)cc(Cl)c(Cl)c12 | 20 | – | – |
| Clc1ccc2oc3c(Cl)c(Cl)c(Cl)cc3c2c1 | 0.2 | – | – |
| Cc1ccc([N+](C)(C)C)cc1O | – | 3.11 | – |
| Cc1ccc(O)cc1[N+](C)(C)C | – | 2.82 | – |
| Clc1cccc2c1Oc1ccccc1O2 | 100 | – | – |
| Clc1ccc(-c2cc(Cl)c(Cl)c(Cl)c2)c(Cl)c1 | 14.1 | – | – |
| Brc1cc2c(cc1Br)Oc1c(cc(Br)c(Br)c1Br)O2 | 0.00661 | – | – |
| Clc1ccc(-c2cc(Cl)c(Cl)c(Cl)c2)cc1 | 28 | – | – |
| Clc1cc2c(cc1Cl)Oc1c(ccc(Cl)c1Cl)O2 | 0.16 | – | – |
| CCC(=O)Oc1cc([N+](C)(C)C)ccc1C | – | 3.77 | – |
| Clc1cc(Cl)c2c(c1)oc1c(Cl)cccc12 | 4.37 | – | – |
| Clc1cc2c(cc1Cl)Oc1cc(Br)c(Cl)cc1O2 | 0.0115 | – | – |
| COc1cc([N+](C)(C)C)ccc1C | – | 122 | – |
| Clc1cc(Cl)c(-c2cc(Cl)c(Cl)c(Cl)c2)c(Cl)c1 | 99.1 | – | – |
| C[N+]1(C)CCO[C@@](O)(c2ccc(N)cc2)C1 | – | 690 | – |
| CC(=O)Oc1cc([N+](C)(C)C)ccc1C | – | 0.659 | – |
